DBAASP
Values after ≈ are worked out from the molar mass of the structure shown.

Assays:
Assay in all cases: ≥ marks a high value that may be exact or a test limit, other limits are often not marked, values filed in µg/mL are converted to µM
Escherichia coli JW0013 = system: Escherichia coli JW0013
Bacillus subtilis 168 = system: Bacillus subtilis 168
Escherichia coli B = system: Escherichia coli B
Pseudomonas aeruginosa = system: Pseudomonas aeruginosa
Staphylococcus aureus = system: Staphylococcus aureus

SMILES | MIC (Escherichia coli JW0013) | also measured
CC[C@H](C)[C@H](NC(=O)[C@H](CCCN=C(N)N)NC(=O)[C@H](CCCN=C(N)N)NC(=O)[C@@H]1CCCN1C(=O)[C@@H]1CCCN1C(=O)[C@H](CCCN=C(N)N)NC(=O)[C@@H]1CCCN1C(=O)[C@H](CCCN=C(N)N)NC(=O)[C@@H]1CCCN1C(=O)[C@H](CC(C)C)NC(=O)[C@H](Cc1ccc(O)cc1)NC(=O)[C@@H]1CCCN1C(=O)[C@@H]1CCCN1C(=O)[C@H](CCCCN)NC(=O)[C@H](CC(=O)O)NC(=O)[C@H](C)N)C(=O)N[C@@H](Cc1ccc(O)cc1)C(=O)N[C@@H](CC(N)=O)C(=O)N[C@@H](CCCN=C(N)N)C(N)=O [ADKPPYLPRPRPPRRIYNR] | 2.03 µM (≈ 4.8 µg/mL) | 
CC[C@H](C)[C@H](NC(=O)[C@H](Cc1cnc[nH]1)NC(=O)[C@H](CCCCN)NC(=O)[C@H](CC(C)C)NC(=O)[C@H](CC(C)C)NC(=O)[C@H](CO)NC(=O)[C@H](CCSC)NC(=O)[C@H](Cc1ccccc1)NC(=O)[C@H](CCCCN)NC(=O)CN)C(=O)N[C@@H](CC(C)C)C(=O)N[C@@H](CCCCN)C(N)=O [GKFMSLLKHILK] |  | MIC (Bacillus subtilis 168): 1.5 µM (≈ 2.12 µg/mL); MIC (Escherichia coli B): 5.8 µM (≈ 8.2 µg/mL); MIC (Pseudomonas aeruginosa): 30 µM (≈ 42.4 µg/mL); MIC (Staphylococcus aureus): 43.3 µM (≈ 61.2 µg/mL)
CC[C@H](C)[C@H](NC(=O)[C@H](Cc1cnc[nH]1)NC(=O)[C@H](CCCCN)NC(=O)[C@H](CC(C)C)NC(=O)[C@H](CC(C)C)NC(=O)[C@H](Cc1cnc[nH]1)NC(=O)[C@H](CCSC)NC(=O)[C@H](Cc1c[nH]c2ccccc12)NC(=O)[C@H](CCCCN)NC(=O)CN)C(=O)N[C@@H](CC(C)C)C(=O)N[C@@H](CCCCN)C(N)=O [GKWMHLLKHILK] |  | MIC (Bacillus subtilis 168): 1.1 µM (≈ 1.65 µg/mL); MIC (Escherichia coli B): 2.2 µM (≈ 3.31 µg/mL); MIC (Pseudomonas aeruginosa): 46.7 µM (≈ 70.2 µg/mL); MIC (Staphylococcus aureus): 12.5 µM (≈ 18.8 µg/mL)
CC(C)C[C@H](NC(=O)[C@H](CCCN=C(N)N)NC(=O)[C@@H]1CCCN1C(=O)[C@@H]1CCCN1C(=O)[C@H](CCCN=C(N)N)NC(=O)[C@@H]1CCCN1C(=O)[C@H](CCCN=C(N)N)NC(=O)[C@H](CCCN=C(N)N)NC(=O)[C@H](CCCN=C(N)N)NC(=O)[C@@H](N)CCCN=C(N)N)C(=O)N1CCC[C@H]1C(=O)N[C@@H](CCCN=C(N)N)C(=O)N1CCC[C@H]1C(=O)N[C@@H](CCCN=C(N)N)C(=O)N1CCC[C@H]1C(=O)N[C@@H](CCCN=C(N)N)C(=O)O [RRRRPRPPRLPRPRPR] | 0.3 µM (≈ 0.636 µg/mL) | 
CC[C@H](C)[C@H](NC(=O)[C@H](CCCN=C(N)N)NC(=O)[C@H](CCCN=C(N)N)NC(=O)[C@@H]1CCCN1C(=O)[C@@H]1CCCN1C(=O)[C@H](CCCN=C(N)N)NC(=O)[C@@H]1CCCN1C(=O)[C@H](CCCN=C(N)N)NC(=O)[C@@H]1CCCN1C(=O)[C@H](CC(C)C)NC(=O)[C@H](Cc1ccc(O)cc1)NC(=O)[C@@H]1CCCN1C(=O)[C@H](C)NC(=O)[C@H](CCCCN)NC(=O)[C@H](CC(=O)O)NC(=O)[C@@H](N)C(C)C)C(=O)N[C@@H](Cc1ccc(O)cc1)C(=O)N[C@@H](CC(N)=O)C(=O)N[C@@H](CCCN=C(N)N)C(N)=O [VDKAPYLPRPRPPRRIYNR] | 1.4 µM (≈ 3.3 µg/mL) | 

More lines, main results first:

MIC (Escherichia coli JW0013) | SMILES | also measured
1.97 µM (≈ 4.8 µg/mL) | CC[C@H](C)[C@H](NC(=O)[C@H](CCCN=C(N)N)NC(=O)[C@H](CCCN=C(N)N)NC(=O)[C@@H]1CCCN1C(=O)[C@@H]1CCCN1C(=O)[C@H](CCCN=C(N)N)NC(=O)[C@@H]1CCCN1C(=O)[C@H](CCCN=C(N)N)NC(=O)[C@@H]1CCCN1C(=O)[C@H](CC(C)C)NC(=O)[C@H](Cc1ccc(O)cc1)NC(=O)[C@@H]1CCCN1C(=O)[C@H](Cc1cnc[nH]1)NC(=O)[C@H](CCCCN)NC(=O)[C@H](CC(=O)O)NC(=O)[C@@H](N)C(C)C)C(=O)N[C@@H](Cc1ccc(O)cc1)C(=O)N[C@@H](CC(N)=O)C(=O)N[C@@H](CCCN=C(N)N)C(N)=O [VDKHPYLPRPRPPRRIYNR] | 
0.978 µM (≈ 2.4 µg/mL) | CC[C@H](C)[C@H](NC(=O)[C@H](CCCN=C(N)N)NC(=O)[C@H](CCCN=C(N)N)NC(=O)[C@@H]1CCCN1C(=O)[C@@H]1CCCN1C(=O)[C@H](CCCN=C(N)N)NC(=O)[C@@H]1CCCN1C(=O)[C@H](CCCN=C(N)N)NC(=O)[C@@H]1CCCN1C(=O)[C@H](CC(C)C)NC(=O)[C@H](CCCN=C(N)N)NC(=O)[C@H](Cc1cnc[nH]1)NC(=O)[C@H](CCCCN)NC(=O)[C@H](CCCCN)NC(=O)[C@H](CC(=O)O)NC(=O)[C@@H](N)C(C)C)C(=O)N[C@@H](Cc1ccc(O)cc1)C(=O)N[C@@H](CC(N)=O)C(=O)N[C@@H](CCCN=C(N)N)C(N)=O [VDKKHRLPRPRPPRRIYNR] | 
2.02 µM (≈ 4.8 µg/mL) | CC[C@H](C)[C@H](NC(=O)[C@H](CCCN=C(N)N)NC(=O)[C@H](CCCN=C(N)N)NC(=O)[C@@H]1CCCN1C(=O)[C@@H]1CCCN1C(=O)[C@H](CCCN=C(N)N)NC(=O)[C@@H]1CCCN1C(=O)[C@H](Cc1cnc[nH]1)NC(=O)[C@@H]1CCCN1C(=O)[C@H](CC(C)C)NC(=O)[C@H](Cc1ccc(O)cc1)NC(=O)[C@@H]1CCCN1C(=O)[C@@H]1CCCN1C(=O)[C@H](CCCCN)NC(=O)[C@H](CC(=O)O)NC(=O)[C@@H](N)C(C)C)C(=O)N[C@@H](Cc1ccc(O)cc1)C(=O)N[C@@H](CC(N)=O)C(=O)N[C@@H](CCCN=C(N)N)C(N)=O [VDKPPYLPHPRPPRRIYNR] | 
1.95 µM (≈ 4.8 µg/mL) | CC[C@H](C)[C@H](NC(=O)[C@H](CCCN=C(N)N)NC(=O)[C@H](CCCN=C(N)N)NC(=O)[C@@H]1CCCN1C(=O)[C@@H]1CCCN1C(=O)[C@H](CCCN=C(N)N)NC(=O)[C@H](Cc1ccc(O)cc1)NC(=O)[C@H](CCCN=C(N)N)NC(=O)[C@@H]1CCCN1C(=O)[C@H](CC(C)C)NC(=O)[C@H](Cc1ccc(O)cc1)NC(=O)[C@@H]1CCCN1C(=O)[C@@H]1CCCN1C(=O)[C@H](CCCCN)NC(=O)[C@H](CC(=O)O)NC(=O)[C@@H](N)C(C)C)C(=O)N[C@@H](Cc1ccc(O)cc1)C(=O)N[C@@H](CC(N)=O)C(=O)N[C@@H](CCCN=C(N)N)C(N)=O [VDKPPYLPRYRPPRRIYNR] | 
0.316 µM (≈ 0.8 µg/mL) | CC[C@H](C)[C@H](NC(=O)[C@H](CCCN=C(N)N)NC(=O)[C@H](CCCN=C(N)N)NC(=O)[C@@H]1CCCN1C(=O)[C@@H]1CCCN1C(=O)[C@H](CCCN=C(N)N)NC(=O)[C@@H]1CCCN1C(=O)[C@H](CCCN=C(N)N)NC(=O)[C@@H]1CCCN1C(=O)[C@H](CCCN=C(N)N)NC(=O)[C@H](Cc1ccc(O)cc1)NC(=O)[C@H](Cc1cnc[nH]1)NC(=O)[C@H](CCCN=C(N)N)NC(=O)[C@H](CCCCN)NC(=O)[C@H](CC(=O)O)NC(=O)[C@@H](N)C(C)C)C(=O)N[C@@H](Cc1ccc(O)cc1)C(=O)N[C@@H](CC(N)=O)C(=O)N[C@@H](CCCN=C(N)N)C(N)=O [VDKRHYRPRPRPPRRIYNR] | 
0.647 µM (≈ 1.6 µg/mL) | CC[C@H](C)[C@H](NC(=O)[C@H](CCCN=C(N)N)NC(=O)[C@H](CCCN=C(N)N)NC(=O)[C@@H]1CCCN1C(=O)[C@@H]1CCCN1C(=O)[C@H](CCCN=C(N)N)NC(=O)[C@H](CCCCN)NC(=O)[C@H](CCCN=C(N)N)NC(=O)[C@@H]1CCCN1C(=O)[C@H](CC(C)C)NC(=O)[C@H](CCCN=C(N)N)NC(=O)[C@@H]1CCCN1C(=O)[C@H](CCCN=C(N)N)NC(=O)[C@H](CCCCN)NC(=O)[C@H](CC(=O)O)NC(=O)[C@@H](N)C(C)C)C(=O)N[C@@H](Cc1ccc(O)cc1)C(=O)N[C@@H](CC(N)=O)C(=O)N[C@@H](CCCN=C(N)N)C(N)=O [VDKRPRLPRKRPPRRIYNR] | 
0.532 µM (≈ 1.3 µg/mL) | CC[C@H](C)[C@H](NC(=O)[C@H](CCCN=C(N)N)NC(=O)[C@H](CCCN=C(N)N)NC(=O)[C@@H]1CCCN1C(=O)[C@@H]1CCCN1C(=O)[C@H](CCCN=C(N)N)NC(=O)[C@@H]1CCCN1C(=O)[C@H](CCCN=C(N)N)NC(=O)[C@@H]1CCCN1C(=O)[C@H](CC(C)C)NC(=O)[C@H](CCCN=C(N)N)NC(=O)[C@@H]1CCCN1C(=O)[C@H](CCCN=C(N)N)NC(=O)[C@H](CCCCN)NC(=O)[C@H](CC(=O)O)NC(=O)[C@@H](N)C(C)C)C(=O)N[C@@H](Cc1ccc(O)cc1)C(=O)N[C@@H](CC(N)=O)C(=O)N[C@@H](CCCN=C(N)N)C(N)=O [VDKRPRLPRPRPPRRIYNR] | 
